Measurements: patent publication US8057810B2, “Peptide substance revealing an immunogeroprotective effect, pharmaceutical composition on its base and the method of its application” (priority 2006, dated 2011)
Residues, ends and D or L forms follow the SMILES beside them.

Legend:
white mongrel male mice = assay: Acute toxicity, single intramuscular administration; assay type: in vivo; settings: single i.m. 1-5 mg/kg, dose exceeding the therapeutic one by more than 5000 times
Protocol: Common toxicity of H-Glu-Asp-Pro-OH was studied according to the requirements stated in the “Manual for experimental (pre-clinical) study of new pharmacological substances” (2005): acute toxicity in case of single administration of the substance and sub-acute and chronic toxicity in case of long-term administration of the peptide.
The study of acute toxicity was performed on 60 white mongrel male mice with body weight of 18-21 g. The animals were randomly subdivided into 6 equal groups. The substance was administered to the animals once, intramuscularly, in the doses of 1 mg/kg, 2 mg/kg, 3 mg/kg, 4 mg/kg, 5 mg/kg in 0.25 ml of sterile 0.9% NaCl solution. The control animals received 0.9% NaCl solution in the same volume. The study of subacute toxicity was performed on 50 white mongrel male rats with body weight of 170-210 g. Experimental animals received the substance daily, intramuscularly for 90 days in the doses of 1 μg/kg, 0.1 mg/kg, 1 mg/kg in 0.5 ml of sterile 0.9% NaCl solution. […] Upon completion of the experiment biochemical and coagulologic indices of the blood were also evaluated. […] Traditional methods were used for the evaluation of the following indices of the animals' peripheric blood: the quantity of erythrocytes, hemoglobin, reticulocytes, thrombocytes, leukocytes, leukocyte formula, erythrocyte sedimentation rate (ESR), erythrocyte resistance. […]

peritoneal macrophages = assay: Production of lymphocyte activation factors (LAF) by peritoneal macrophages; assay type: cell-based, mice
Description: The peculiarities of LAF production by peritoneal macrophages in young and ageing mice, as well as the influence of peptide H-Glu-Asp-Pro-OH on this index were studied. LAF activity of the macrophages was estimated judging by their ability to exert a comitogenic effect on the proliferation of thymocytes, stimulated by suboptimal lectin doses in vitro.
The same tendency to the change in LAF production by macrophages was observed under the effect of peptide H-Glu-Asp-Pro-OH in young mice, but not in the whole range of studied concentrations.

rat thymus cells = assay: Premature aging induced by ionizing irradiation: rat thymus morphology and morphometry; assay type: in vivo, Wistar rats
Protocol: The experiments were conducted on 40 male Wistar rats 2 months old, weighing 180-210 g. Premature aging was modeled by gamma irradiation using LUCH-1 machine (source 60Co; dose output 17.166×10^−4 Gy/sec.). The animals were irradiated in the dose of 6 Gy daily for 5 days. All the animals were divided into 6 groups:
2 and 2a—irradiated rats;
3 and 3a—irradiated rats, subjected to subcutaneous injection of peptide H-Glu-Asp-Pro-OH in the dose of 0.5 μg per animal in 0.25 ml of sterile 0.9% NaCl solution in 24 hours after the first performance of irradiation for 10 days.
Animals of the 2 and 2a group received 0.9% NaCl solution in the same volume and following the same scheme. Slaughtering of the animals and extraction of their thymus were conducted using nembutal anaesthesia (50 mg/kg). Thymus in groups 1-3 was extracted on the 14th day after the experiment onset, in the 1a-3a groups—on the 21 day after the experiment onset.
Fragments of the extracted thymus were fixed for 24 hours in Buen sour liquid for optic microscopy. Material dehydration and filling it in with paraffin for optic microscopy were conducted according to conventional techniques. Paraffin sections (7 μm) were placed on a microscope slide covered with a poly-L-lysine film (Sigma). Histological and immunohistochemical examinations were carried out using Jenamed-2 microscope (Zeiss).
Review staining of the preparations was conducted by hematoxylin-eosin. Mast cells were selectively stained using 1% toluidine blue (Fluka) solution in 0.5M HCl with pH 0.5.
For electron microscopy fragments of the extracted thymus were fixed according to Karnovsky's method. […]
The morphometric studies were conducted by means of the system for computer analysis of microscopic images Imstar using Morphostar and Colquant-2 software, in accordance with the basic principles of stereology and morphometry. […] Proliferative activity index (IPCNA) was calculated using the following formula: IPCNA(%)=NPCNA/Nnuclei×100.

[1] = ageing mice 19-20 months, 0.5 to 500 ng/ml
[2] = group 3: irradiated rats, 0.5 μg per animal s.c. for 10 days, 14th day

Structure (SMILES): N[C@@H](CCC(=O)O)C(=O)N[C@@H](CC(=O)O)C(=O)N1CCC[C@H]1C(=O)O [Peptide H-Glu-Asp-Pro-OH, glutamyl-aspartyl-proline] (H-Glu-Asp-Pro-OH)
- Acute toxicity: toxic reactions (white mongrel male mice): does not cause toxic reactions
- LAF production by non-stimulated peritoneal macrophages (peritoneal macrophages; [1]): induces the production of LAF
- LAF production under the effect of LPS (peritoneal macrophages; [1]): increases the production of LAF
- Change in LAF production by macrophages (peritoneal macrophages; young mice 2 months, not in the whole range of studied concentrations): same tendency
- Number of mast cells in the thymus (rat thymus cells; [2]): 32±5 per 1 mm^2
- Proliferative activity index (IPCNA) in the thymus (rat thymus cells; [2]): 55%
- Involution changes of the thymus (microscopic analysis) vs irradiated groups 2 and 2a (rat thymus cells; groups 3, 3a: irradiated rats, 0.5 μg per animal s.c., 14th and 21st day): less pronounced involution changes
